Biological target: T1, OGA (Homo sapiens, UniProt O60502)
T1 construct: endogenous in cells; host or cells: HEK293 cells inducible for P301L mutant human Tau (2N4R)
T1 sequence (O60502 1-916): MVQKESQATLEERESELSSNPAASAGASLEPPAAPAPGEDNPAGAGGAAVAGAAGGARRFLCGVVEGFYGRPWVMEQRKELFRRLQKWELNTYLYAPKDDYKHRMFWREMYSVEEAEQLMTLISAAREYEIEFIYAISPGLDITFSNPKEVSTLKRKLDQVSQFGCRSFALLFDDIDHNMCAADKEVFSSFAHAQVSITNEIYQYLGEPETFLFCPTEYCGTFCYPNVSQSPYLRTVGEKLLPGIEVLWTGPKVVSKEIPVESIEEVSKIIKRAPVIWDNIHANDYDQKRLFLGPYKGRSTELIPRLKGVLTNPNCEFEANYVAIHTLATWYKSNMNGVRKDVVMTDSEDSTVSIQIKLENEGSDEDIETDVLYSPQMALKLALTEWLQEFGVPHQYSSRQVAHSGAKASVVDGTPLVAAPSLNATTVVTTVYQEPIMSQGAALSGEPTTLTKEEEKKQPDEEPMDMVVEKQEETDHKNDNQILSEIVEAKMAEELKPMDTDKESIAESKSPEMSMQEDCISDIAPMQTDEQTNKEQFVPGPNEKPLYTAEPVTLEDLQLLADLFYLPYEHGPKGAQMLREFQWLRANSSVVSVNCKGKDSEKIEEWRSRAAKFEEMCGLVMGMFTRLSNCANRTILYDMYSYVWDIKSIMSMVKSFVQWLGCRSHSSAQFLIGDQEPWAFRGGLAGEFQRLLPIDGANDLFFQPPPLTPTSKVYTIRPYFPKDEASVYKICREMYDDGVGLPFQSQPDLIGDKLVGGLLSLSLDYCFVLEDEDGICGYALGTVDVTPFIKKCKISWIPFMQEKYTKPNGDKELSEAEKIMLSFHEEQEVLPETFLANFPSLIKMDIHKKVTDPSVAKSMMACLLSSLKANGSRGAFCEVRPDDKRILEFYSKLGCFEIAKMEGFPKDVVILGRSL
Test: OGA cellular assay (ICC detection of O-GlcNAcylated proteins in HEK293 cells inducible for P301L mutant human Tau)
Format: cell-based
Details: for EC50: 6 hours incubation, read-out: Cellular hOGA, pEC50 (converted)
Method in brief: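 HEK293 cells inducible for P301L Tau, in low-glucose assay medium, treated 6 h with compound at 0.2% DMSO. O-GlcNAcylated proteins detected by CTD110.6 immunostaining, imaged at 488 nm with Hoechst nuclear counts for toxicity. IC50 from non-linear regression, 200 uM Thiamet G as maximum.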

[1] = HEK293 cells inducible for P301L mutant human Tau

Which results are given for Cc1cc(OC[C@H]2CCCN(C(C)c3nc4c(cc3F)OCCO4)C2)cc(C)n1 (single isomer, unassigned) [Product 155]?
EC50 [1]: 0.00257 µM; Cellular Emax (%) (HEK293 cells inducible for P301L mutant human Tau, maximal effect, Thiamet G 200 uM as maximum): 95%

For Cc1cc([C@H]2CCCN(C(C)c3cnc4c(c3)OCCN4)C2)cc(C)n1 (single isomer, unassigned) [Product 135], which Emax (HEK293, HEK293 cells inducible for P301L mutant human Tau, maximal effect, Thiamet G 200 uM as maximum) is on record?
The Emax was 68%.

And the EC50 [1]?
The EC50 was 0.0251 µM.

Source: patent US20210300943A1, “OGA INHIBITOR COMPOUNDS” (Janssen Pharmaceutica NV, priority 2018, published 2021)
